Reference: patent US10842892B2, “Methods and apparatus for synthesizing imaging agents, and intermediates thereof” (Lantheus Medical Imaging, Inc., priority 2010, dated 2020)
Values joined by “and” are separate entries in the source; they are usually repeats but may differ in a detail not shown here. Equal entries are not always repeated.

Columns and labels:
[1] = syringe component adsorption of imaging agent 1; format: physicochemical; settings: B&D syringe, three hours
Method: To further identify the contact surface material that contributed to syringe retention of imaging agent 1, three additional B&D syringes were each filled with a 1 mL solution of imaging agent 1 then maintained at ambient temperature and humidity for a period of three hours. Following transfer of the individual doses as described in Example 1, the syringe barrel and butyl rubber tip plunger were then separated, measured for retained radioactivity and decay corrected. The difference in percent retained activity is statistically significant at the 95% confidence level (i.e. Prob>|t| 0.0017).

[2] = tested on: myocardial ischemia; experiment: imaging agent 1 and ^82Rb PET versus ^99mTc sestamibi SPECT, perfusion defect assessment (phase II); format: in vivo, human
Method: Twenty-six patients (20 men) who underwent ^99mTc sestamibi SPECT and imaging agent 1 PET within 6 months at a single center in a phase II clinical trial were compared to 23 patients (matched by summed difference score (SDS) on SPECT) who underwent ^99mTc sestamibi SPECT and ^82Rb PET (25-50 mCi) within 6 months without change in clinical state. PET was performed with imaging agent 1 at rest (2.3-3.9 mCi) followed 60 min or 24 h later with exercise or adenosine stress (7.3-8.6 mCi). Perfusion defects on SPECT and PET were assessed by computer-assisted visual interpretation, using the standard 17 segment, 5 point-scoring model (0=normal; 4=absent uptake). The extent and severity of ischemia (SDS) was derived from the difference between summed stress score (SSS) and summed rest scores (SRS).
Twenty six patients (20 men) underwent SPECT and PET within 6-months. PET was performed with imaging agent 1 at rest (2.3-3.9 mCi) followed 60 min (n=18) or 24 h (n=8) later with exercise (n=16) or adenosine (n=10) stress (7.3-8.6 mCi). Image quality of SPECT and PET was consensually assessed by 2 independent blinded readers and graded as excellent, good, or fair. Stress and rest perfusion defects on SPECT and PET were assessed by the same readers by computer-assisted visual interpretation, using the standard 17 segment, 5 point-scoring model (0=normal; 4=absent uptake). The extent and severity of ischemia (summed difference score (SDS)) was derived from the difference between summed stress (SSS) and summed rest scores (SRS). Image quality with PET was excellent in 24 and good in 2 patients. In contrast, there were 7 excellent, 18 good, and 1 fair quality study, p<0.001 by SPECT. In 14 patients with abnormal SPECT (SSS≥4), mean SDS was greater with PET than with SPECT (9.6±1.8 vs. 5.4±0.7, p=0.02). In all 12 patients with normal SPECT (SSS<4), SDS was zero by PET and SPECT.

SMILES: CC(C)(C)n1ncc(OCc2ccc(COCC[18F])cc2)c(Cl)c1=O [imaging agent 1, 2-t-butyl-4-chloro-5-[4-(2-(^18F)fluoroethoxymethyl)-benzyloxy]-2H-pyridazin-3-1]
- Retained Activity in syringe part ([1]; Barrel): 6.9% and 5.5% and 7.0%
- Retained Activity in syringe part ([1]; Plunger (butyl rubber tip)): 30.9% and 27.7% and 21.8%
- SDS ([2]; 12 patients with normal SPECT (SSS<4)): zero
- mean SDS (summed difference score) ([2]; 14 patients with abnormal SPECT (SSS≥4)): 9.6±1.8
- image quality excellent, number of patients ([2]; 26 patients, 2 blinded readers): 24
- image quality good, number of patients ([2]; 26 patients, 2 blinded readers): 2
- differences in SDS, PET compared to SPECT ([2]; patients with normal SPECT (SSS<4)): no differences
